Measurements reported in patent US20070243144A1, “External Preparation” (TOYO SHINYAKU CO., LTD, priority 2004, published 2007).

Tested on: HFSKF-II cells (human skin fibroblast)
Experiment: Ability to suppress the generation of active oxygen caused by ultraviolet radiation
Format: cell-based
Conditions: 100 μg/mL in medium with 0.03 wt % hydrogen peroxide; UV A 365 nm 4.4 J/cm^2; DCFH-DA fluorescence; six wells
Method: HFSKF-II cells (human skin fibroblast; obtained from RIKEN) were seeded in a 96-well plate at a concentration of 2×10^5 cells/well, and using 0.1 mL of standard medium (Ham's F-12 medium containing 15% of fetal calf serum; manufactured by Sigma-Aldrich), these were incubated for 24 hours at 37° C. in a 5% CO2 atmosphere. Next, the plate was washed three times with PBS by the method of Hong Wang et al. (Free Radic. Biol. Med., 1999). Then the medium was replaced with a standard medium containing 100 μM of DCFH-DA (2′,7′-dichlorofluorescein diacetate; manufactured by Sigma-Aldrich) and this was incubated for 10 minutes at 37° C. in a 5% CO2 atmosphere. Next, the plate was washed three times with PBS. […] UV A is a UV radiation that readily passes through skin, and is known to promote skin aging.
Next, the fluorescence F of the DCFH-DA that is emitted due to the presence of active oxygen was measured with a multispectrometer (Varioscan; excitation wavelength: 485±10 nm, detection wavelength: 530±10 nm; Thermo Electron Corporation), and the suppression rate of the active oxygen generation due to UV radiation when the pueraria flower extract was employed was calculated from the following formula. […] Fsample: The fluorescence measured after the medium was replaced with a standard medium that contains pueraria flower extract and UV A was irradiated. […]

**Q.** Which “Suppression rate of the active oxygen generation (%)” value does the source give for `COC1=C(OC)C(=O)C(C/C=C(\C)CC/C=C(\C)CC/C=C(\C)CC/C=C(\C)CC/C=C(\C)CC/C=C(\C)CC/C=C(\C)CC/C=C(\C)CC/C=C(\C)CCC=C(C)C)=C(C)C1=O` [Coenzyme Q10, coenzyme Q10] here?
**A.** The value was 30.6 ± 7.7%.
